Results from PubChem BioAssay AID224 (DTP/NCI, 2004).
“And” between values parts separate entries of the source, which are not always exact repeats. Identical values can stand only once. Inconclusive results and toxic doses are left out.

Tested on: P335 leukemia ip, BDF1 mice, survival T/C %
Assay: NCI In Vivo Anticancer Drug Screen. Data for tumor model P335 Leukemia (intraperitoneal) in B6D2F1 (BDF1) mice
Settings: endpoint: mean survival time, higher = longer survival
Procedure: The antitumor activity of compounds was measured in mice bearing transplantable tumors. Survival or tumor size were measured and the results are expressed as the measurement made in the treated group (T) divided by the measurement made in the vehicle treated control group (C). The tumor model used in this assay is P335 Leukemia (intraperitoneal) in B6D2F1 (BDF1) mice

[1] = dose: 50.0 mg/kg/injection, schedule: Q01DX Z (ip), vehicle: other

Cc1n[nH]c(=O)[nH]c1=O
T/C [1]: 97 % of control | T/C (dose: 100.0 mg/kg/injection, schedule: Q01DX Z (ip), vehicle: other): 97 % of control | T/C (dose: 200.0 mg/kg/injection, schedule: Q01DX Z (ip), vehicle: other): 102 % of control | T/C (dose: 400.0 mg/kg/injection, schedule: Q01DX Z (ip), vehicle: other): 103 % of control

O=c1cnn(C2OC(CO)C(O)C2O)c(=O)[nH]1 (centres undefined)
T/C (dose: 0.98 mg/kg/injection, schedule: Q01DX Z (ip), vehicle: water): 102 % of control | T/C (dose: 1.0 mg/kg/injection, schedule: Q01DX Z (ip), vehicle: water): 95 % of control | T/C (dose: 1.95 mg/kg/injection, schedule: Q01DX Z (ip), vehicle: water): 115 % of control | T/C (dose: 2.0 mg/kg/injection, schedule: Q01DX Z (ip), vehicle: water): 98 % of control | T/C (dose: 3.9 mg/kg/injection, schedule: Q01DX Z (ip), vehicle: water): 105 % of control | T/C (dose: 7.8 mg/kg/injection, schedule: Q01DX Z (ip), vehicle: water): 112 % of control | T/C (dose: 8.0 mg/kg/injection, schedule: Q01DX Z (ip), vehicle: water): 93 % of control | T/C (dose: 15.6 mg/kg/injection, schedule: Q01DX Z (ip), vehicle: water): 152 % of control | T/C (dose: 250.0 mg/kg/injection, schedule: Q01DX Z (ip), vehicle: water): 101 % of control | T/C (dose: 500.0 mg/kg/injection, schedule: Q01DX Z (ip), vehicle: water): 104 % of control | T/C (dose: 1000.0 mg/kg/injection, schedule: Q01DX Z (ip), vehicle: water): 112 % of control

CCC(=O)O[C@H]1CC[C@H]2[C@@H]3CCC4=CC(=O)CC[C@]4(C)[C@H]3CC[C@]12C
T/C (dose: 23.43 mg/kg/injection, schedule: Q01DX Z (sc), vehicle: steriod suspending solution): 114 % of control | T/C (dose: 60.0 mg/kg/injection, schedule: Q01DX Z (sc), vehicle: steriod suspending solution): 106 % of control | T/C (dose: 93.75 mg/kg/injection, schedule: Q01DX Z (sc), vehicle: steriod suspending solution): 114 % of control | T/C (dose: 300.0 mg/kg/injection, schedule: Q01DX Z (sc), vehicle: steriod suspending solution): 122 % of control | T/C (dose: 375.0 mg/kg/injection, schedule: Q01DX Z (sc), vehicle: steriod suspending solution): 107 % of control | T/C (dose: 1500.0 mg/kg/injection, schedule: Q01DX Z (sc), vehicle: steriod suspending solution): 98 % of control and 113 % of control

CN(N=O)C(=O)NC(C=O)C(O)C(O)C(O)CO (centres undefined)
T/C (dose: 6.25 mg/kg/injection, schedule: Q01DX Z (ip), vehicle: saline): 96 % of control | T/C (dose: 12.5 mg/kg/injection, schedule: Q01DX Z (ip), vehicle: saline): 112 % of control | T/C (dose: 25.0 mg/kg/injection, schedule: Q01DX Z (ip), vehicle: saline): 113 % of control | T/C (dose: 100.0 mg/kg/injection, schedule: Q01DX Z (ip), vehicle: saline): 151 % of control

O=c1[nH]c(=O)n(C2CC(O)C(CO)O2)cc1I (centres undefined)
T/C (dose: 225.0 mg/kg/injection, schedule: Q01DX Z (ip), vehicle: carboxymethylcellulose (CMC)): 93 % of control | T/C (dose: 450.0 mg/kg/injection, schedule: Q01DX Z (ip), vehicle: carboxymethylcellulose (CMC)): 104 % of control

NC(Cc1ccc(N(CCCl)CCCl)cc1)C(=O)O (centres undefined)
T/C (dose: 2.5 mg/kg/injection, schedule: Q01DX Z (ip), vehicle: carboxymethylcellulose (CMC)): 87 % of control | T/C (dose: 5.0 mg/kg/injection, schedule: Q01DX Z (ip), vehicle: carboxymethylcellulose (CMC)): 94 % of control

CC(=O)OCC1OC(n2ncc(=O)[nH]c2=O)C(OC(C)=O)C1OC(C)=O (centres undefined)
T/C (dose: 25.0 mg/kg/injection, schedule: Q01DX Z (ip), vehicle: other): 120 % of control | T/C [1]: 109 % of control | T/C (dose: 99.0 mg/kg/injection, schedule: Q01DX Z (ip), vehicle: other): 114 % of control | T/C (dose: 187.5 mg/kg/injection, schedule: Q01DX Z (ip), vehicle: other): 124 % of control | T/C (dose: 188.0 mg/kg/injection, schedule: Q01DX Z (ip), vehicle: other): 114 % of control
